How the values were obtained:
endothelial cells = assay: sandwich Matrigel model of endothelial tube formation; type: cell-based
Description: Indeed, while endothelial cells culture leads to pavimentous organization when plated on dishes (FIG. 1A), endothelial cells progressively form tubes when cultured within gels of collagen, fibrin or Matrigel®. Accordingly, in the “3-D model”, endothelial cells are mixed to the matrix before gelification and tube-like structures are obtained after 48-72 hours (FIG. 1B); this model, however, reduces the efficiency of transfection. In the “sandwich model”, cells are first cultured to confluence on a first layer of matrix, and are then covered by a second matrix layer; cells are easily transfected in the interval preceding the addition of the upper layer. The latter technique allows the formation of endothelial tubes in 3-6 hours; the tube structures are mature 12 hours after induction (FIG. 1C) and then start to regress.
Of note, when endothelial cells were transfected with an irrelevant construct (β-galactosidase-encoding), no change in the rate and extent of tube formation was observed.

CaM/eNOS interaction = assay: CaM/eNOS co-immunoprecipitation, EC; type: cell-based, human
Description: (§1) Immunoprecipitation, Immunoblotting, and Kinase Assay was performed as follows: EC were homogenized in a buffer containing phosphatase and protease inhibitors (Garcia-Cardena, G., et al. (1998) Nature 392, 821-824), and processed for immunoblotting or immunoprecipitation in a octyl glucoside-containing buffer as described previously (Feron, O., et al. (1998) J. Biol. Chem. 273, 3125-3128). Caveolin, eNOS, and hsp90 antibodies were from BD Transduction Labs, Akt and phospho-Akt antibodies from BD PharMingen, CaM antibody from Santa Cruz, and phospho-eNOS antibody from NEB Cell Signaling Technology. Akt activity was measured using a non-radioactive immunoprecipitation kinase assay kit (NEB Cell Signaling Technology).
In order to further dissect the calcium dependence of the Akt-mediated phosphorylation of eNOS, the eNOS/CaM association was examined after 2 and 30 min VEGF exposure, i.e. at the maximum of the calcium transient and after the return of [Ca^2+]i to its basal level, respectively.

eNOS = assay: nitrite (NO2-) detection, VEGF-stimulated EC; type: cell-based, human
Description: Nitrite was Detected as follows: Quantitative analysis of nitrite (NO2^−) was used as an index of NO production. Briefly, aliquots of the medium bathing intact EC were collected at the time intervals corresponding to either 0-2 or 5-30 min of VEGF exposure. For the latter period, the medium bathing the VEGF-stimulated cells for the first 5 min was discarded and replaced by fresh VEGF-containing medium for the next 25 min. […] Data are normalized for the amount of protein in the dish, and are presented for convenience as mean+/−S.E. Statistical analyses were made using Student's t test or one-way ANOVA where appropriate.

eNOS/hsp90 interaction = assay: eNOS/hsp90 co-immunoprecipitation, statin-exposed HUVECs; conditions: mevalonate 1 mmol/L, BAPTA-AM 20 μmol/L, CSD peptide loading
phospho-Ser1177-eNOS [1] = assay: phospho-Ser1177-eNOS immunoblot, VEGF-exposed HUVEC; type: cell-based, human
caveolin-eNOS complex = assay: caveolin/eNOS co-immunoprecipitation, VEGF-exposed HUVEC; type: cell-based, human; conditions: for effect on VEGF-induced caveolin/eNOS dissociation: geldanamycin, BAPTA
Description: as §1, with “(1998) J. Biol. Chem. 273, 30249-30254) and plated at 5×10^5 cells/ml. […] Immunoprecipitation,” for “Immunoprecipitation,”, “(Garcia-[…].,” for “(Garcia-Cardena, G.,”, “Technology). […] First, extracts were immunoprecipitated with caveolin antibodies and the immuno-precipitation immunoblotted with eNOS antibodies (FIG. 10A, top). […] Experiments were then performed to determine the time course of hsp90 interaction with eNOS.” for “Technology).”

[Ca^2+]i = Fura-2 measurement of [Ca2+]i in VEGF-exposed EC; type: cell-based, human
Description: Alternating wavelength excitation of 340 and 380 nm was provided by a motorized filter wheel. The image pairs monitored by the Ionoptix Myocam camera were processed by the IonWizard software (Ionoptix, Milton, Mass.) and are presented as the fluorescence ratio (340/380 nm), a direct index to the [Ca^2+]i. In some experiments, Fura-2-loaded cells were preincubated with the intracellular calcium chelator BAPTA/AM (20 μM).

phospho-Ser473-Akt [2] = assay: phospho-Ser473-Akt immunoblot, VEGF-exposed HUVEC; type: cell-based, human
phospho-Ser473-Akt [3] = assay: phospho-Ser473-Akt immunoblot, statin-exposed HUVECs; conditions: for (basal) level of Akt phosphorylation: phosphatase inhibitor
hsp90/eNOS interaction = assay: hsp90/eNOS co-immunoprecipitation, VEGF-exposed HUVEC; type: cell-based, human
phospho-Ser1177-eNOS [4] = assay: phospho-Ser1177-eNOS immunoblot, statin-exposed HUVECs; conditions: for effect on statin-induced phosphorylation of eNOS: atorvastatin 1 μmol/L, LY294002 10 μmol/L, geldanamycin 1 μg/mL, mevalonate 1 mmol/L, BAPTA-AM 20 μmol/L, CSD peptide loading
Akt/eNOS interaction = assay: Akt/eNOS co-immunoprecipitation, VEGF-exposed HUVEC; type: cell-based, human
Description: Immunoprecipitation, Immunoblotting, and Kinase Assay was performed as follows: EC were homogenized in a buffer containing phosphatase and protease inhibitors (Garcia-[…] ., et al. (1998) Nature 392, 821-824), and processed for immunoblotting or immunoprecipitation in a octyl glucoside-containing buffer as described previously (Feron, O., et al. (1998) J. Biol. Chem. 273, 3125-3128). Caveolin, eNOS, and hsp90 antibodies were from BD Transduction Labs, Akt and phospho-Akt antibodies from BD PharMingen, CaM antibody from Santa Cruz, and phospho-eNOS antibody from NEB Cell Signaling Technology. Akt activity was measured using a non-radioactive immunoprecipitation kinase assay kit (NEB Cell Signaling Technology). It was further analyzed whether eNOS and Akt interact together in eNOS/Akt co-immunoprecipitation experiments. […] In an attempt to appreciate the proportion of eNOS involved in the geldanamycin-sensitive recruitment of Akt, the reverse co-immunoprecipitation assay was further developed: hsp90 and Akt antibodies were used to immunoprecipitate eNOS (which was detected by immunoblotting) and the supernatants of these immunoprecipitations were checked for residual eNOS presence; for this purpose, the immunoprecipitated supernatants were submitted to a second immunoprecipitation with eNOS antibodies.

CMECs = assay: angiogenesis assay on Matrigel, CMECs; type: cell-based, Mouse; conditions: CMECs; L-NAME 5 mmol/L coincubation; geldanamycin 1 μg/mL 30-minute preincubation
Description: (§2) Tube formation was observed using an inverted phase-contrast microscope (Zeiss Axiovert 25), and images were captured with a videographic system (Pixera Pro). The tube formation index was determined by measuring the length of tubes in random fields from each well using the Image J program. Statistical analyses were made using the Student t test or one-way ANOVA where appropriate.

AoECs = assay: aortic ring culture in Matrigel, AoEC network organization; type: cell-based, rat; conditions: L-NAME added at the time of serum deprivation
Description: as §2, with “Cultures of AoECs and CoMECs organized in a network were then challenged at day 5 by incubation under serum-free conditions for 24 to 48 hours with or without some of the drugs mentioned above. […] Tube” for “Tube”

wild-type eNOS = assay: nitrite production in transfected COS cells, wild-type eNOS; type: cell-based
caveolin [5] = assay: caveolin immunoblot, AoECs; type: cell-based, rat; conditions: AoECs; culture medium supplemented with mevalonate
From the text: (§3) Therefore, the effects of statin exposure on the absolute amounts of caveolin in AoECs and CMECs was examined.

[6] = test system: phospho-Akt/eNOS interaction; assay: eNOS/phospho-Akt co-immunoprecipitation, statin-exposed HUVECs; conditions: co-IP
caveolin [7] = assay: caveolin immunoblot, AECs; type: cell-based, Bovine; conditions: AECs; culture medium supplemented with mevalonate
From the text: as §3

HUVECs = assay: angiogenesis assay on Matrigel, HUVECs; type: cell-based, human; conditions: HUVECs on Matrigel, atorvastatin
Description: as §2
Transfection and peptide loading was performed by reversible permeabilization: HUVECs were transfected with the hsp90 cDNA (a gift from Dr W. C. Sessa, Yale University, New Haven, Conn.) using Lipofectamine (Invitrogen) according to the manufacturer's protocol; an irrelevant plasmid encoding β-galactosidase was used as a control to obtain identical amounts of transfected DNA in each condition. HUVECs were also reversibly permeabilized, as previously reported (Feron et al. J Biol. Chem. 1998; 273:30249-30254), to introduce synthetic peptides derived from the caveolin scaffolding domain (CSD).

phospho-GSK-3 = phospho-GSK-3 immunoblot, insulin-stimulated cardiac myocytes; type: cell-based; conditions: neonatal mouse cardiac myocytes
Description: (§4) Cell Culture was performed as follows: Freshly isolated human umbilical vein EC (HUVEC) were cultured to confluence in 100-mm dishes in a 2:1 mixture of M199/endothelial cell basal medium containing 10% serum; control experiments were also performed with myocytes isolated from neonatal mice as previously detailed (Feron, et al. (1998) J. Biol. Chem. 273, 30249-30254) and plated at 5×10^5 cells/ml. Serum-starved EC and myocytes were exposed for the indicated periods of time to VEGF (50 ng/ml) and insulin (12.5 milliunits/ml), respectively, in the presence or absence of various pharmacological modulators (30-60 min preincubation with 1 μg/ml geldanamycin (Invitrogen Life Technolo-gies) or 10 μM LY294002 (Sigma)).
(§5) Accordingly, neonatal mouse cardiac myocytes were exposed to insulin (a known activator of Akt in myocytes) for 5 min with or without geldanamycin and examined the phosphorylation status of Akt and eNOS. […] Myocytes show native expression of GSK-3 and were used to determine whether geldanamycin could influence the phosphorylation of this other Akt substrate.

phospho-eNOS = phospho-eNOS immunoblot, insulin-stimulated cardiac myocytes; type: cell-based; conditions: neonatal mouse cardiac myocytes
Description: as §4, §5

phospho-Akt = phospho-Akt immunoblot, insulin-stimulated cardiac myocytes; type: cell-based; conditions: neonatal mouse cardiac myocytes
Description: as §4, §5

[8] = eNOS antibodies, geldanamycin 1 μg/ml 30 min, BAPTA
[9] = nitrite production normalized per min

## CC(=O)N[C@@H](C(=O)O)C(C)(C)SN=O (racemic) [SNAP]
Endothelial cells; caveolin-overexpressing cells
  effect on the anti-angiogenic effect observed in caveolin-overexpressing cells: correct this anti-angiogenic effect
Endothelial cells; non-transfected cells
  endothelial tube formation: accelerated the endothelial tube formation

## CNc1ccc2oc(C[C@H]3O[C@@]4(CC[C@H]3C)O[C@H]([C@H](C)C(=O)c3ccc[nH]3)[C@H](C)C[C@H]4C)nc2c1C(=O)O [A23187]
CaM/eNOS interaction; short exposure to A23187
  eNOS/CaM association: led to the early association between eNOS and CaM
eNOS; 1 μM A23187 pulse for 2 min
  early NO2^− production (0-2 min) relative to the level obtained with VEGF: ~3 fold
eNOS; 1 μM A23187 pulse for 2 min, then Ca^2+-free medium
  long-term NO2^− production compared with VEGF-exposed cells: significantly lower

## CC(=O)OCOC(=O)CN(CC(=O)OCOC(C)=O)c1ccccc1OCCOc1ccccc1N(CC(=O)OCOC(C)=O)CC(=O)OCOC(C)=O [BAPTA-AM]
eNOS/hsp90 interaction
  effect on atorvastatin-stimulated eNOS/hsp90 interaction: abrogated
phospho-Ser1177-eNOS [1]; LY294002 10 μM 1-h preincubation, geldanamycin 1 μg/ml, BAPTA-AM 20 μM
  effect on VEGF-induced eNOS phosphorylation: prevented
caveolin-eNOS complex
  effect on VEGF-induced caveolin/eNOS dissociation: complete inhibition
CaM/eNOS interaction; BAPTA pretreatment
  effect on VEGF-induced CaM/eNOS interaction: completely abrogated
[Ca^2+]i; 20 μM BAPTA-AM
  effect on VEGF-evoked calcium transient: completely abrogated
  effect on the basal level of [Ca^2+]i: no effect
phospho-Ser473-Akt [2]; LY294002 10 μM 1-h preincubation, geldanamycin 1 μg/ml, BAPTA
  effect on VEGF-induced Akt phosphorylation: not altered
phospho-Ser473-Akt [3]; CSD peptide loading, BAPTA-AM added 30 minutes before statin
  effect on statin-induced phosphorylation of Akt: blocked
hsp90/eNOS interaction; [8]
  effect on VEGF-induced hsp90/eNOS co-immunoprecipitation: completely prevented
phospho-Ser1177-eNOS [4]
  effect on statin-induced phosphorylation of eNOS: abrogated
eNOS; BAPTA added after the early phase (at t=5 min), versus vehicle
  level of eNOS activation for the 5-30-min period: no significant reduction
eNOS; [9]
  effect on early VEGF-induced eNOS activation (0-2 min): sufficient to block
  effect on late VEGF-induced eNOS activation (5-30 min): sufficient to block
Akt/eNOS interaction; [8]
  effect on VEGF-induced Akt/eNOS co-immunoprecipitation: prevented

## COC(=O)[C@@H](N)CCCNC(=N)N[N+](=O)[O-] [L-NAME, N^G-nitro-L-arginine methyl ester]
CMECs
  effect on atorvastatin-induced tube formation: almost completely blocked
AoECs
  effect on statin stabilisation of the network: abrogated the beneficial effects of statin pretreatment

## COC1=C2C[C@@H](C)C[C@H](OC)[C@H](O)[C@@H](C)/C=C(\C)[C@H](OC(N)=O)[C@@H](OC)/C=C\C=C(/C)C(=O)NC(=CC1=O)C2=O [geldanamycin]
wild-type eNOS; COS cells, preincubation
  part of the recombinant hsp90- and hsp90/Akt-mediated increase in NO production blocked: 70-95%
wild-type eNOS; WT-eNOS COS cells pretreated for 30 min
  part of the Akt-dependent increase in nitrite production blocked: around 70%
caveolin-eNOS complex
  effect on VEGF-induced caveolin/eNOS dissociation: no significant effect
eNOS; [9]
  effect on early VEGF-induced eNOS activation (0-2 min): no significant effect

## CC(O)(CCO)CC(=O)O (stereo not shown) [mevalonate]
eNOS/hsp90 interaction
  effect on atorvastatin-stimulated eNOS/hsp90 interaction: reverse the stimulatory effect
Caveolin [5]
  effect on statin-induced reduction in caveolin abundance: blocked the statin-induced reduction in caveolin abundance
[6]
  effect on phospho-Akt/eNOS interaction upon statin: reverse the stimulatory effect
Caveolin [7]
  effect on statin-induced reduction in caveolin abundance: blocked the statin-induced reduction in caveolin abundance
phospho-Ser1177-eNOS [4]
  effect on statin-induced phosphorylation of eNOS: reverse the stimulatory effect

## C=C1[C@@H](O)[C@@H]2O[C@]3(CC[C@H](/C=C/[C@@H](C)[C@@H]4CC(C)=C[C@@]5(O[C@H](C[C@@](C)(O)C(=O)O)CC[C@H]5O)O4)O3)CC[C@H]2O[C@@H]1[C@@H](O)C[C@H](C)[C@H]1O[C@@]2(CCCCO2)CC[C@H]1C [okadaic acid]
[6]
  effect on phospho-Akt/eNOS interaction upon statin: promoted
phospho-Ser473-Akt [3]
  (basal) level of Akt phosphorylation: dramatically increased
HUVECs
  effect on statin-induced tube formation: stimulated basal and statin-induced tube formation
phospho-Ser1177-eNOS [4]; okadaic acid versus okadaic acid+statin, 100 nmol/L
  increase of statin-induced phosphorylation of eNOS in the presence of okadaic acid: ~3 fold

## VEGF
phospho-Ser1177-eNOS [1]; VEGF exposure
  time to maximal eNOS phosphorylation: at least 5 min
caveolin-eNOS complex; VEGF 50 ng/ml
  time to complete dissociation of eNOS from caveolin: ≤ 2 min
caveolin-eNOS complex; in the presence of VEGF
  time for which dissociation was maintained: at least 30 min
CaM/eNOS interaction; VEGF
  persistence of the CaM/eNOS association: at least 30 min
CaM/eNOS interaction; after VEGF stimulation
  time at which CaM could be detected in the eNOS immune complex: 2 min
[Ca^2+]i; VEGF exposure
  time to peak of calcium transient: 1 min
phospho-Ser473-Akt [2]; VEGF exposure
  time at which Akt phosphorylation was already observed: 30 s
hsp90/eNOS interaction; 5 min VEGF, reverse immunoprecipitation with hsp90 antibodies
  proportion of eNOS pool engaged in hsp90 interaction: around half of the total eNOS pool
hsp90/eNOS interaction; VEGF 50 ng/ml
  cell exposure needed for hsp90 co-immunoprecipitation with eNOS: ≥ 2 min
eNOS; after VEGF stimulation, preliminary experiments
  rate of NO2- produced in the first 5-min interval versus the following 30 min: 2-3 fold
eNOS; control conditions
  absolute amount of NO2^− produced in the 5-30-min period versus the first 2-min VEGF exposure: 5.5 fold
eNOS; following VEGF stimulation
  amounts of NO2^− in the 55-60-min interval: below the detection level
Akt/eNOS interaction; 5 min VEGF, reverse immunoprecipitation with Akt antibodies
  proportion of eNOS pool engaged in Akt interaction: around half of the total eNOS pool
Akt/eNOS interaction; VEGF stimulation
  time from which Akt association to eNOS could be detected: ≥ 2 min

## calyculin
phospho-Ser473-Akt [3]
  (basal) level of Akt phosphorylation: stimulated Akt phosphorylation

## insulin: a known activator of Akt in myocytes
phospho-GSK-3
  GSK-3 phosphorylation: stimulatory effect
phospho-eNOS
  eNOS phosphorylation: stimulatory effect
phospho-Akt
  Akt phosphorylation: stimulatory effect

Source: US20090226427A1, “NOVEL PHARMACEUTICAL COMPOSITIONS FOR MODULATING ANGIOGENESIS” (priority 1999, published 2009)
